Results taken from ChEMBL document CHEMBL5154935, “Design, Synthesis, and Biological Evaluation of Novel Evodiamine Derivatives as Potential Antihepatocellular Carcinoma Agents” (J Med Chem, 2022).
pIC50: −log10 of the molar value. Activity calls are given as the source filed them. The calls are words filed in the database; no cut-off is given here.

Assays:
[1] = system: Huh-7; experiment: Induction of cell cycle arrest in human Huh-7 cells assessed as accumulation at S phase at 80 nM treated for 24 hrs by PI staining based flow cytometry (reference value: 23.33 %); type: functional
[2] = system: HepG2; experiment: Antiproliferative activity against human HepG2 cells treated for 72 hrs by MTT assay; type: functional, cell-based; conditions: HepG2, 72 h
[3] = Induction of apoptosis in rat HSC-T6 cells assessed as early apoptotic cells at 40 nM pretreated with TGFbeta-1 for 1 day followed by compound addition and measured after 24 hrs by flow cytometry (reference value: 0.17 %); type: functional
[4] = system: SK-HEP1; experiment: Inhibition of cell migration in human SK-HEP1 cells incubated for 24 hrs by scratch wound healing assay; type: functional, cell-based; conditions: dose 3-18 nM, DDE = dose-dependent effect
[5] = Induction of apoptosis in rat HSC-T6 cells assessed as late apoptotic cells at 40 nM pretreated with TGFbeta-1 for 1 day followed by compound addition and measured after 24 hrs by flow cytometry (reference value: 1.76 %); type: functional
[6] = system: Huh-7; experiment: Induction of cell cycle arrest in human Huh-7 cells assessed as accumulation at G1 phase at 80 nM treated for 24 hrs by PI staining based flow cytometry (reference value: 60.77 %); type: functional
[7] = system: SK-HEP1; experiment: Induction of apoptosis in human SK-Hep1 cells assessed as viable cells at 10 nM incubated for 24 hrs by annexin V-FITC/PI staining flow cytometry (reference value: 97.8 %); type: functional; conditions: read-out: Activity
[8] = system: Huh-7; experiment: Induction of apoptosis in human Huh-7 cells assessed as viable cells at 80 nM incubated for 24 hrs by annexin V-FITC/PI staining flow cytometry (reference value: 97.3 %); type: functional; conditions: read-out: Activity
[9] = system: SK-HEP1; experiment: Induction of mitochondrial membrane potential changes in human SK-Hep1 cells assessed as decrease in TMRE positive cells incubated for 24 hrs by TMRE staining based flow cytometry; type: functional, cell-based; conditions: dose 10-80 nM, DDE = dose-dependent effect
[10] = system: Huh-7; experiment: Induction of cell cycle arrest in human Huh-7 cells assessed as accumulation at G1 phase at 40 nM treated for 24 hrs by PI staining based flow cytometry (reference value: 60.77 %); type: functional
[11] = system: SK-HEP1; experiment: Induction of cell cycle arrest in human SK-Hep1 cells assessed as accumulation at G1 phase at 10 nM treated for 24 hrs by PI staining based flow cytometry (reference value: 58.47 %); type: functional
[12] = system: Huh-7; experiment: Induction of apoptosis in human Huh-7 cells assessed as late apoptotic cells at 10 nM incubated for 24 hrs by annexin V-FITC/PI staining flow cytometry (reference value: 1.33 %); type: functional
[13] = system: SK-HEP1; experiment: Induction of apoptosis in human SK-Hep1 cells assessed as cytoskeleton disintegration incubated for 24 hrs by Giemsa staining based microscopy; type: functional, cell-based; conditions: dose 12-60 nM, DDE = dose-dependent effect
[14] = system: SK-HEP1; experiment: Induction of apoptosis in human SK-Hep1 cells assessed as early apoptotic cells at 40 nM incubated for 24 hrs by annexin V-FITC/PI staining flow cytometry (reference value: 0.30 %); type: functional
[15] = system: HCC; experiment: Inhibition of clonogenicity in human HCC cells assessed as decrease in number of colonies at 3 to 18 nM incubated for 1 to 2 weeks by optical microscopy analysis; type: functional, cell-based; conditions: dose 3-18 nM, time 1-2 weeks
[16] = system: Huh-7; experiment: Antiproliferative activity against human Huh-7 cells treated for 72 hrs by MTT assay; type: functional, cell-based; conditions: Huh-7, 72 h
[17] = system: SK-HEP1; experiment: Induction of apoptosis in human SK-Hep1 cells assessed as cell shrinkage incubated for 24 hrs by Giemsa staining based microscopy; type: functional; conditions: dose 12-60 nM, DDE = dose-dependent effect
[18] = Induction of apoptosis in rat HSC-T6 cells assessed as early apoptotic cells at 80 nM pretreated with TGFbeta-1 for 1 day followed by compound addition and measured after 24 hrs by flow cytometry (reference value: 0.17 %); type: functional
[19] = system: Huh-7; experiment: Induction of apoptosis in human Huh-7 cells assessed as necrotic cells at 80 nM incubated for 24 hrs by annexin V-FITC/PI staining flow cytometry (reference value: 1.08 %); type: functional
[20] = system: Huh-7; experiment: Induction of apoptosis in human Huh-7 cells assessed as late apoptotic cells at 80 nM incubated for 24 hrs by annexin V-FITC/PI staining flow cytometry (reference value: 1.33 %); type: functional
[21] = system: HSC-T6; experiment: Suppression of TGF-beta-1-stimulated rat HSC-T6 cells activation assessed as reduction in Col-1 levels preincubated with TGFbeta-1 followed by compound addition and measured after 24 to 48 hrs by ELISA; type: functional, cell-based; conditions: dose 10-80 nM, time 24-48 hrs, DDE = dose-dependent effect
[22] = system: SK-HEP1; experiment: Induction of cell cycle arrest in human SK-Hep1 cells assessed as accumulation at G2 phase at 80 nM treated for 24 hrs by PI staining based flow cytometry (reference value: 16.55 %); type: functional
[23] = system: Huh-7; experiment: Induction of ROS generation in human Huh-7 cells incubated for 24 hrs by DCFH2-DA probe based flow cytometry; type: functional, cell-based; conditions: dose 10-80 nM, DDE = dose-dependent effect
[24] = system: SK-HEP1; experiment: Inhibition of cell invasion in human SK-HEP1 cells at 3 to 18 nM incubated for 24 hrs by matrigel based assay; type: functional; conditions: dose 3-18 nM
[25] = system: SK-HEP1; experiment: Induction of apoptosis in human SK-Hep1 cells assessed as late apoptotic cells at 80 nM incubated for 24 hrs by annexin V-FITC/PI staining flow cytometry (reference value: 1.13 %); type: functional
[26] = system: SK-HEP1; experiment: Antiproliferative activity against human SK-Hep1 cells assessed as inhibition of cell viability treated for 24 to 72 hrs by MTT assay; type: functional, cell-based; conditions: time 24-72 hrs, DDE = dose-dependent effect
[27] = system: Huh-7; experiment: Induction of cell cycle arrest in human Huh-7 cells assessed as accumulation at S phase at 40 nM treated for 24 hrs by PI staining based flow cytometry (reference value: 23.33 %); type: functional
[28] = Induction of apoptosis in rat HSC-T6 cells assessed as necrotic cells at 10 nM pretreated with TGFbeta-1 for 1 day followed by compound addition and measured after 24 hrs by flow cytometry (reference value: 0.56 %); type: functional
[29] = system: SK-HEP1; experiment: Induction of cell cycle arrest in human SK-Hep1 cells assessed as accumulation at G1 phase at 80 nM treated for 24 hrs by PI staining based flow cytometry (reference value: 58.47 %); type: functional
[30] = Induction of apoptosis in rat HSC-T6 cells assessed as early apoptotic cells at 10 nM pretreated with TGFbeta-1 for 1 day followed by compound addition and measured after 24 hrs by flow cytometry (reference value: 0.17 %); type: functional
[31] = system: SK-HEP1; experiment: Induction of apoptosis in human SK-Hep1 cells assessed as necrotic cells at 40 nM incubated for 24 hrs by annexin V-FITC/PI staining flow cytometry (reference value: 0.73 %); type: functional
[32] = system: Huh-7; experiment: Induction of apoptosis in human Huh-7 cells assessed as viable cells at 10 nM incubated for 24 hrs by annexin V-FITC/PI staining flow cytometry (reference value: 97.3 %); type: functional; conditions: read-out: Activity
[33] = Induction of apoptosis in rat HSC-T6 cells assessed as necrotic cells at 40 nM pretreated with TGFbeta-1 for 1 day followed by compound addition and measured after 24 hrs by flow cytometry (reference value: 0.56 %); type: functional
[34] = Induction of apoptosis in rat HSC-T6 cells assessed as viable cells at 80 nM pretreated with TGFbeta-1 for 1 day followed by compound addition and measured after 24 hrs by flow cytometry (reference value: 97.5 %); type: functional; conditions: read-out: Activity

| Structure (SMILES) | Activity [1] [%] | pIC50 [2] | Activity [3] [%] | inhibition [4] | Activity [5] [%] | Activity [6] [%] | viability at 0.01 µM [7] [%] | viability at 0.08 µM [8] [%] | Activity [9] | Activity [10] [%] | Activity [11] [%] | Activity [12] [%] | Activity [13] | Activity [14] [%] | inhibition [15] | pIC50 [16] | Activity [17] | Activity [18] [%] | Activity [19] [%] | Activity [20] [%] | also measured |
| --- | --- | --- | --- | --- | --- | --- | --- | --- | --- | --- | --- | --- | --- | --- | --- | --- | --- | --- | --- | --- | --- |
| CC(=O)Oc1ccc2[nH]c3c(c2c1)CCN1C(=O)c2cc(F)cc(F)c2N(c2cccc(F)c2)C31 (stereo not drawn) | 8.43 | 6.74 | 0.32 | Dde | 12.8 | 17.18 | 86.7 | 59.7 | Dde | 28.25 | 62.52 | 4.02 | Dde | 8.25 | Active | 7.52 | Dde | 0.83 | 9.88 | 29.4 | Activity [21]: Dde; Activity [22]: 76.35%; Activity [23]: Dde; inhibition [24]: Active; Activity [25]: 19.5%; Activity [26]: Dde; Activity [27]: 21.48%; Activity [28]: 0.93%; Activity [29]: 19.76%; Activity [30]: 0.52%; Activity [31]: 2.44%; viability at 0.01 µM [32]: 93.8%; Activity [33]: 1.29%; viability at 0.08 µM [34]: 41.7% |
| O=C1c2cc(F)cc(F)c2N(c2cccc(F)c2)C2c3[nH]c4ccc(O)cc4c3CCN12 (stereo not drawn) | 10.85 | 7.05 | 0.14 | Dde | 10.4 | 10.64 | 92.9 | 58.4 | Dde | 15.01 | 54.93 | 4.61 | Dde | 8.02 | Active | 7.40 | Dde | 0.72 | 9.82 | 30 | Activity [21]: Dde; Activity [22]: 83.92%; Activity [23]: Dde; inhibition [24]: Active; Activity [25]: 15.4%; Activity [26]: Dde; Activity [27]: 21.24%; Activity [28]: 0.8%; Activity [29]: 11.58%; Activity [30]: 0.084%; Activity [31]: 2.92%; viability at 0.01 µM [32]: 93.1%; Activity [33]: 1.11%; viability at 0.08 µM [34]: 83.8% |
